According to article PMC3834726 (Clinical cancer research : an official journal of the …, 2012):
Read-outs that look alike come from different tables or passages of the source.

Tests used:
advanced malignancies = test: Tumor response; type: in vivo, human
[1] = human, in vivo
blood 20S proteasome = test: Pharmacodynamics: blood 20S proteasome activity; type: in vivo, human
[2] = potent inhibitor of CYP2C19; cited from earlier work
[3] = including patients on dialysis; cited from earlier work

SMILES: CC(C)C[C@H](NC(=O)[C@H](Cc1ccccc1)NC(=O)c1cnccn1)B(O)O [bortezomib, Bortezomib]
- Patients achieving stable disease (advanced malignancies; all hepatic function groups): five
- Patients with progressive disease as best response (advanced malignancies; all patients): 35
- Study discontinuation due to disease progression (advanced malignancies; all patients): 37 (61%) n (%)
- Study discontinuation due to disease progression (advanced malignancies; mild impairment group): 11 (65%) n (%)
- Study discontinuation due to disease progression (advanced malignancies; moderate impairment group): 9 (75%) n (%)
- Study discontinuation due to disease progression (advanced malignancies; normal function group): 8 (57%) n (%)
- Study discontinuation due to disease progression (advanced malignancies; severe impairment group): 9 (50%) n (%)
- Disposition kinetics [1]: multi-exponential disposition kinetics
- Dose calculated to match exposures at 1.3 mg/m^2 in normal hepatic function [1]: approximately 0.8 mg/m^2
- Increase in dose-normalized AUC (systemic exposure) [1]: approximately 60%
- Increase in mean dose-normalized AUC0-tlast [1]: approximately 60%
- Observed mean increase in dose-normalized AUC relative to normal hepatic function group [1]: 1.6 fold
- Magnitude of percent inhibition of blood 20S proteasome activity (blood 20S proteasome; 0.5 mg/m^2, severe hepatic impairment (data not shown)): lower than that observed at the higher dose levels
- Time of maximum mean percent inhibition of blood 20S proteasome activity (blood 20S proteasome; across dose levels and hepatic function groups, first post-dose time point): 1 h
- Mean percent inhibition of 20S proteasome activity at 24 hours post dose (blood 20S proteasome; normal hepatic function group, 1.3 mg/m^2, day 1): approximately 31%
- Bortezomib exposure on co-administration of omeprazole [2]: unaffected
- Pharmacokinetics in varying grades of renal impairment [3]: not altered
- Deaths during the study (all patients): 15
- Died during treatment (reason for study discontinuation) (all patients): 2 (3%) n (%)
- On-study deaths (all patients, N=61): 15 (25) n (%)
- Deaths due to disease progression (all patients, of 15 deaths): 12
- Anorexia, any grade (human, in vivo): 19 (31) n (%)
- Any AE (human, in vivo): 59 (97) n (%)
- Any drug-related AE (human, in vivo): 40 (66) n (%)
- Any grade ≥3 AE (human, in vivo): 49 (80) n (%)
- Any grade ≥4 AE (human, in vivo): 22 (36) n (%)
- Any serious AE (human, in vivo): 28 (46) n (%)
- Decreased platelet count, any grade (human, in vivo): 18 (30) n (%)
- Decreased platelet count, grade ≥3 (human, in vivo): 7 (11) n (%)
- Discontinuation due to grade 3 hypotension (human, in vivo): 1 patient
- Discontinuation due to grade 4 elevated blood bilirubin (human, in vivo): 2 patients
- Dyspnea, any grade (human, in vivo): 19 (31) n (%)
- Elevated AST, incidence (human, in vivo): 7%
- Elevated blood bilirubin, rate (human, in vivo): 7%
- Fatigue, any grade (human, in vivo): 31 (51) n (%)
- Fatigue, grade ≥3 (human, in vivo): 9 (15) n (%)
- Increased AST, grade ≥3 (human, in vivo): 6 (10) n (%)
- Increased blood bilirubin, grade ≥3 (human, in vivo): 7 (11) n (%)
- Nausea, any grade (human, in vivo): 24 (39) n (%)
- Rate of grade ≥3 AEs (human, in vivo): 71%
- Rate of grade ≥4 AEs (human, in vivo): 14%
- Dose-limiting toxicity (DLT) (in vivo): none of these events met the protocol-defined criteria for DLT
- Relation of elevations in liver function test parameters to drug (in vivo): not considered to be drug-related
- On-study deaths (mild impairment, 1.0 mg/m^2, n=6): 0 n (%)
- On-study deaths (mild impairment, 1.3 mg/m^2, n=11): 4 (36) n (%)
- On-study deaths (moderate impairment, 0.7 mg/m^2, n=9): 2 (22) n (%)
- On-study deaths (moderate impairment, 1.0 mg/m^2, n=3): 0 n (%)
- On-study deaths (normal hepatic function, 1.3 mg/m^2, N=14): 2 (14) n (%)
- On-study deaths (severe impairment, 0.5 mg/m^2, n=5): 2 (40) n (%)
- On-study deaths (severe impairment, 0.7 mg/m^2, n=6): 3 (50) n (%)
- On-study deaths (severe impairment, 1.0 mg/m^2, n=7): 2 (29) n (%)
